We go through 15 molecules from US8697641B2, “4-amino-4-oxobutanoyl peptide cyclic analogues, inhibitors of viral replication” (Achillion Pharmaceuticals, Inc., priority 2008, dated 2014).

SMILES strings stand for the structures.

What is called EC50 is the midpoint of the concentration-response curve. A high value points to weaker potency.

One test concerns Hepatitis C replicon. In words: HCV replicon assay (NPT ELISA readout) in Huh-7 replicon-containing cells. The test is classed as cell-based, Hepatitis C virus. The following applies: HCV replicon in Huh-7 cells, three days incubation. A digest of the protocol: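 Replication is measured as neomycin phosphotransferase level by captured ELISA after three days of compound exposure (typically 10 to 0.03 μM, 6 concentrations) at 37 °C. Cells are Huh-7 harbouring an HCV replicon with neo gene and NS3-NS5B; interferon alpha is the positive control.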
In general terms: In antiviral work, replicon cells carry a viral genome segment that copies itself.
For `COc1ccc2c(O[C@@H]3C[C@H]4C(=O)N[C@]5(C(=O)NS(=O)(=O)C6CC6)C[C@H]5CCCCCCC[C@H](CC(=O)N5CCCCC5)C(=O)N4C3)cc(-c3ccccc3)nc2c1` [Compound 51, (2R,6R,13aR, 14aR,16aS)-N-(cyclopropylsulfonyl)-2-(7-methoxy-2-phenylquinolin-4-yloxy)-5,16-dioxo-6-(2-oxo-2-(piperidin-1-yl)ethyl) octadecahydrocyclopropa [e]pyrrolo[1,2-a][1,4] diazacyclopentadecine-14a-carboxamide], the half-maximal effective concentration (EC50) was less than 1000 nM.

The same test, now with this note: Hepatitis C virus, 72 h; HCV replicon in Huh-7 cells, three days incubation.
Regarding `COc1ccc2c(O[C@@H]3C[C@H]4C(=O)N[C@]5(C(=O)NS(=O)(=O)C6CC6)C[C@H]5/C=C\CCCCC[C@H](CC(=O)N5CC[C@H](C(C)(C)N)C5)C(=O)N4C3)cc(-c3ccccc3)nc2c1` [Compound 111, (2R,6R,14aR,16aS,Z)-6-(2-((S)-3-(2-aminopropan-2-yl)pyrrolidin-1-yl)-2-oxoethyl)-N-(cyclopropylsulfonyl)-2-(7-methoxy-2-phenylquinolin-4-yloxy)-5,16-dioxo-1,2,3,5,6,7,8,9,10,11, 13a,14,14a,15,16,16a-hexadecahydrocyclopropa [e]pyrrolo[1,2-a][1,4] diazacyclopentadecine-14a-carboxamide], the EC50 is less than 1000 nM.

In turn, `COc1ccc2c(O[C@@H]3C[C@H]4C(=O)N[C@]5(C(=O)NS(=O)(=O)C6CC6)C[C@H]5/C=C\CCCCC[C@H](CC(=O)N5CC[C@H](N)C5)C(=O)N4C3)cc(-c3ccccc3)nc2c1` [Compound 102, (2R,6R,14aR,16aS, Z)-6-(2-((S)-3-aminopyrrolidin-1-yl)-2-oxoethyl)-N-(cyclopropylsulfonyl)-2-(7-methoxy-2-phenylquinolin-4-yloxy)-5,16-dioxo-1,2,3,5,6,7,8,9,10,11, 13a,14,14a,15,16,16a-hexadecahydrocyclopropa [e]pyrrolo[1,2-a][1,4] diazacyclopentadecine-14a-carboxamide] showed a half-maximal effective concentration (EC50) of less than 1000 nM.

Molecule `O=C(N[C@@H]1C[C@H]2C(=O)N[C@]3(C(=O)NS(=O)(=O)C4CC4)C[C@H]3/C=C\CCCCC[C@H](CC(=O)N3CCC(F)(F)CC3)C(=O)N2C1)c1cc(-c2ccccc2)nc2ccccc12` [Compound 79, (2R,6R,13aS, 14aR,16aS,Z)-N-(cyclopropylsulfonyl)-6-(2-(4,4-difluoropiperidin-1-yl)-2-oxoethyl)-5,16-dioxo-2-(2-phenylquinoline-4-carboxamido)-1,2,3,5,6,7,8,9,10,11, 13a,14,14a,15,16,16a-hexadecahydrocyclopropa [e]pyrrolo[1,2-a][1,4] diazacyclopentadecine-14a-carboxamide] yielded a concentration giving a half-maximal response (EC50) of less than 1000 nM.

`COc1ccc2c(O[C@@H]3C[C@H]4C(=O)N[C@]5(C(=O)NS(=O)(=O)C6CC6)C[C@H]5/C=C\CCCCC[C@H](CC(=O)O)C(=O)N4C3)cc(-c3ccccc3)nc2c1` [Compound 59, 2-((2R,6R,13aS, 14aR,16aS,Z)-14a-(cyclopropylsulfonyl-carbamoyl)-2-(7-methoxy-2-phenylquinolin-4-yloxy)-5,16-dioxo-1,2,3,5,6,7,8,9,10,11, 13a,14,14a,15,16,16a-hexadecahydrocyclopropa [e]pyrrolo[1,2-a][1,4]diazacyclopentadecin-6-yl)acetic acid] had an EC50 of less than 1000 nM.

The molecule `COc1ccc2c(O[C@@H]3C[C@H]4C(=O)N[C@]5(C(=O)NS(=O)(=O)C6CC6)C[C@H]5/C=C\CCCCC[C@H](CC(=O)N5CCOCC5)C(=O)N4C3)cc(-c3ccccc3)nc2c1` [Compound 60, (2R,6R,13aS, 14aR,16aS,Z)-N-(cyclopropylsulfonyl)-2-(7-methoxy-2-phenylquinolin-4-yloxy)-6-(2-morpholino-2-oxoethyl)-5,16-dioxo-1,2,3,5,6,7,8,9,10,11, 13a,14,14a,15,16,16a-hexadecahydrocyclopropa [e]pyrrolo[1,2-a][1,4] diazacyclopentadecine-14a-carboxamide] displayed an EC50 of less than 1000 nM.

`COc1ccc2nc(-c3ccccn3)cc(C(=O)N[C@@H]3C[C@H]4C(=O)N[C@]5(C(=O)NS(=O)(=O)C6CC6)C[C@H]5/C=C\CCCCC[C@H](CC(=O)N5CCC(F)(F)C5)C(=O)N4C3)c2c1` [Compound 98, (2R,6R,14aR,16aS,Z)-N-(cyclopropylsulfonyl)-6-(2-(3,3-difluoropyrrolidin-1-yl)-2-oxoethyl)-2-(6-methoxy-2-(pyridin-2-yl)quinoline-4-carboxamido)-5,16-dioxo-1,2,3,5,6,7,8,9,10,11, 13a,14,14a,15,16,16a-hexadecahydrocyclopropa [e]pyrrolo[1,2-a][1,4] diazacyclopentadecine-14a-carboxamide] returned a half-maximal effective concentration (EC50) of less than 1000 nM.

Regarding `O=C1N[C@]2(C(=O)NS(=O)(=O)C3CC3)C[C@H]2/C=C\CCCCC[C@H](CC(=O)N2CCC(C(F)(F)F)CC2)C(=O)N2C[C@H](Oc3cc(-c4ccccn4)nc4c5c(ccc34)CCC5)C[C@@H]12` [Compound 125, (2R,6R,13aS,16aS,Z)-N-(cyclopropylsulfonyl)-5,16-dioxo-6-(2-oxo-2-(4-(trifluoromethyl)piperidin-1-yl)ethyl)-2-(2-(pyridin-2-yl)-8,9-dihydro-7H-cyclopenta[h]quinolin-4-yloxy)-1,2,3,5,6,7,8,9,10,11, 13a,14,14a,15,16,16a-hexadecahydrocyclopropa [e]pyrrolo[1,2-a][1,4] diazacyclopentadecine-14a-carboxamide], the concentration giving a half-maximal response (EC50) was less than 1000 nM.

`O=C1N[C@]2(C(=O)NS(=O)(=O)C3CC3)CC2/C=C\CCCCC[C@H](CC(=O)N2CCC(C(F)(F)F)CC2)C(=O)N2C[C@H](OC(=O)N3CCc4ccccc4C3)C[C@@H]12` (stereo partly drawn) [Compound 115, (2R,6R,14aR, 16aS,Z)-14a-(cyclopropylsulfonyl-carbamoyl)-5,16-dioxo-6-(2-oxo-2-(4-(trifluoromethyl)piperidin-1-yl)ethyl)-1,2,3,5,6,7,8,9,10,11, 13a,14,14a,15,16,16a-hexadecahydrocyclopropa [e]pyrrolo[1,2-a][1,4] diazacyclopentadecin-2-yl 3,4-dihydroisoquinoline-2(1H)-carboxylate]: the 50% effective concentration (EC50) is less than 1000 nM.

For `COc1ccc2c(O[C@@H]3C[C@H]4C(=O)N[C@]5(C(=O)NS(=O)(=O)C6CC6)C[C@H]5/C=C\CCCCC[C@H](CC(=O)N5CCC(F)(F)CC5)C(=O)N4C3)cc(-c3ccccn3)nc2c1Cl` [Compound 93, (2R,6R,14aR,16aS,Z)-2-(8-chloro-7-methoxy-2-(pyridin-2-yl)quinolin-4-yloxy)-N-(cyclopropylsulfonyl)-6-(2-(4,4-difluoropiperidin-1-yl)-2-oxoethyl)-5,16-dioxo-1,2,3,5,6,7,8,9,10,11, 13a,14,14a,15,16,16a-hexadecahydrocyclopropa [e]pyrrolo[1,2-a][1,4] diazacyclopentadecine-14a-carboxamide], the 50% effective concentration (EC50) was less than 1000 nM.

Regarding `COc1ccc2c(O[C@@H]3C[C@H]4C(=O)N[C@]5(C(=O)NS(=O)(=O)C6CC6)C[C@H]5/C=C\CCCCC[C@H](CC(=O)N5CCCC5)C(=O)N4C3)cc(-c3ccccc3)nc2c1` [Compound 55, (2R,6R,13aS, 14aR,16aS,Z)-N-(cyclopropylsulfonyl)-2-(7-methoxy-2-phenylquinolin-4-yloxy)-5,16-dioxo-6-(2-oxo-2-(pyrrolidin-1-yl)ethyl)-1,2,3,5,6,7,8,9,10,11, 13a,14,14a,15,16,16a-hexadecahydrocyclopropa [e]pyrrolo[1,2-a][1,4] diazacyclopentadecine-14a-carboxamide], the concentration giving a half-maximal response (EC50) was less than 1000 nM.

`COc1ccc2c(O[C@@H]3C[C@H]4C(=O)N[C@]5(C(=O)NS(=O)(=O)C6CC6)C[C@H]5/C=C\CCCCC[C@H](CC(=O)N5CCCC(F)C5)C(=O)N4C3)cc(-c3ccccn3)nc2c1Cl` (stereo partly drawn) [Compound 100, (2R,6R,14aR,16aS,Z)-2-(8-chloro-7-methoxy-2-(pyridin-2-yl)quinolin-4-yloxy)-N-(cyclopropylsulfonyl)-6-(2-(3-fluoropiperidin-1-yl)-2-oxoethyl)-5,16-dioxo-1,2,3,5,6,7,8,9,10,11, 13a,14,14a,15,16,16a-hexadecahydrocyclopropa [e]pyrrolo[1,2-a][1,4] diazacyclopentadecine-14a-carboxamide] had an EC50 of less than 1000 nM.

Turning to `O=C1N[C@]2(C(=O)NS(=O)(=O)C3CC3)C[C@H]2/C=C\CCCCC[C@H](CC(=O)N2CCC(F)(F)CC2)C(=O)N2C[C@H](Oc3cc(-c4ccccn4)nc4c5c(ccc34)OCC5)C[C@@H]12` [Compound 82, (2R,6R,14aR,16aS,Z)-N-(cyclopropylsulfonyl)-6-(2-(4,4-difluoropiperidin-1-yl)-2-oxoethyl)-5,16-dioxo-2-(2-(pyridin-2-yl)-8,9-dihydrofuro[2,3-h]quinolin-4-yloxy)-1,2,3,5,6,7,8,9,10,11, 13a,14,14a,15,16,16a-hexadecahydrocyclopropa [e]pyrrolo[1,2-a][1,4] diazacyclopentadecine-14a-carboxamide], the EC50 is less than 1000 nM.

Consider `COc1ccc2c(O[C@@H]3C[C@H]4C(=O)N[C@]5(C(=O)NS(=O)(=O)C6CC6)C[C@H]5/C=C\CCCCC[C@H](CC(=O)N5CCC(C(F)(F)F)CC5)C(=O)N4C3)cc(-c3nc(C(C)C)cs3)nc2c1` [Compound 119, (2R,6R,14aR,16aS,Z)-N-(cyclopropylsulfonyl)-2-(2-(4-isopropylthiazol-2-yl)-7-methoxyquinolin-4-yloxy)-5,16-dioxo-6-(2-oxo-2-(4-(trifluoromethyl)piperidin-1-yl)ethyl)-1,2,3,5,6,7,8,9,10,11, 13a,14,14a,15,16,16a-hexadecahydrocyclopropa [e]pyrrolo[1,2-a][1,4] diazacyclopentadecine-14a-carboxamide], for which the EC50 is less than 1000 nM.

The molecule `O=C(N[C@@H]1C[C@H]2C(=O)N[C@]3(C(=O)NS(=O)(=O)C4CC4)C[C@H]3/C=C\CCCCC[C@H](CC(=O)N3CCCCC3)C(=O)N2C1)c1cc(-c2ccccc2)nc2ccccc12` [Compound 81, (2R,6R,14aR,16aS,Z)-N-(cyclopropylsulfonyl)-5,16-dioxo-6-(2-oxo-2-(piperidin-1-yl)ethyl)-2-(2-phenylquinoline-4-carboxamido)-1,2,3,5,6,7,8,9,10,11, 13a,14,14a,15,16,16a-hexadecahydrocyclopropa [e]pyrrolo[1,2-a][1,4] diazacyclopentadecine-14a-carboxamide] returned an EC50 of less than 1000 nM.
